From US20200031825A1, “HETEROAROMATIC-FUSED IMIDAZOLYL AMIDES, COMPOSITIONS AND USES THEREOF AS STING AGONISTS” (Trillium Therapeutics Inc., priority 2018, published 2020)
Where a name gives a salt, the structure may show the parent alone. Read-outs that look alike come from different tables or passages of the source.

Tests used:
Format in all cases: cell-based
mSTING-wt = biological target: T1, mSTING-wt (Mus musculus, UniProt Q3TBT3); assay: Cellular Functional Assay I: ISRE-SEAP reporter in HEK-293T-Dual Null cells transfected with mouse STING
T1 sequence (Q3TBT3 1-378): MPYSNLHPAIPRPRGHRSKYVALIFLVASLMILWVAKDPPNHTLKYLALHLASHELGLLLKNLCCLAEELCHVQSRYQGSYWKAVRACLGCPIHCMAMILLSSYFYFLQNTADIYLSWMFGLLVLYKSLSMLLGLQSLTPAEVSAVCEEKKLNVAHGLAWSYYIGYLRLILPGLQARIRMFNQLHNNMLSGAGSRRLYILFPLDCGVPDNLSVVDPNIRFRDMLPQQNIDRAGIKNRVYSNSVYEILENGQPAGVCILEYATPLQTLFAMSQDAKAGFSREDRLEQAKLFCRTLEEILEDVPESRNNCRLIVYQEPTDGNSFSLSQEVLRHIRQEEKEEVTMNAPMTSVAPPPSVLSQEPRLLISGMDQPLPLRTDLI

hSTING-Q = biological target: T2, hSTING-Q (Homo sapiens, UniProt Q86WV6, R293Q); assay: Cellular Functional Assay I: ISRE-SEAP reporter, hSTING-Q allele
T2 construct: expressed in transfected cells

hSTING-wt = hSTING-wt (Homo sapiens, UniProt Q86WV6); assay: Cellular Functional Assay I: ISRE-SEAP reporter in HEK-293T-Dual Null cells transfected with hSTING-wt; settings: HEK-293T-Dual Null, hSTING-wt
hSTING-H232 = hSTING-H232 (Homo sapiens, UniProt Q86WV6); assay: Cellular Functional Assay I: ISRE-SEAP reporter in HEK-293T-Dual Null cells transfected with hSTING-H232; settings: HEK-293T-Dual Null, hSTING-H232
hSTING-AQ = biological target: T3, hSTING-AQ (Homo sapiens, UniProt Q86WV6, G230A/R293Q); assay: Cellular Functional Assay I: ISRE-SEAP reporter, hSTING-AQ allele
T3 construct: expressed in transfected cells

hSTING-HAQ = hSTING-HAQ (Homo sapiens, UniProt Q86WV6, G230A/H232R/R293Q/R71H); assay: Cellular Functional Assay I: ISRE-SEAP reporter in HEK-293T-Dual Null cells transfected with hSTING-HAQ; settings: HEK-293T-Dual Null, hSTING-HAQ
[1] = SEAP reporter, HEK-293T-Dual Null, mSTING-wt, read-out: EC50 mSTING-wt

Sequence of hSTING-wt (Q86WV6 whole entry H232R): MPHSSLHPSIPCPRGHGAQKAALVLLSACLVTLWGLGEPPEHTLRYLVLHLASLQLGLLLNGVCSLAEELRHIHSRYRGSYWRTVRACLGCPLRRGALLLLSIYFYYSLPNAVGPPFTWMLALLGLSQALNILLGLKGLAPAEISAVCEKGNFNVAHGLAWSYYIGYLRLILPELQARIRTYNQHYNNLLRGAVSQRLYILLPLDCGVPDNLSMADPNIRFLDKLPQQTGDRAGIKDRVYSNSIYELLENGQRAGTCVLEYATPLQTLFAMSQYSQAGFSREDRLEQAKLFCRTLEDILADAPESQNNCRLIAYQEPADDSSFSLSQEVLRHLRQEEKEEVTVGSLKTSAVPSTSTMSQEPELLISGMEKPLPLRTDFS
Sequence of hSTING-H232 (Q86WV6 whole entry): as the sequence (Q86WV6 whole entry H232R) above, with R232H counted along it
T2 sequence (Q86WV6 whole entry R293Q): as the sequence (Q86WV6 whole entry H232R) above, with R232H, R293Q counted along it
T3 sequence (Q86WV6 whole entry G230A/H232R/R293Q): as the sequence (Q86WV6 whole entry H232R) above, with G230A, R293Q counted along it
Sequence of hSTING-HAQ (Q86WV6 whole entry R71H/G230A/H232R/R293Q): as the sequence (Q86WV6 whole entry H232R) above, with R71H, G230A, R293Q counted along it

SMILES	EC50 (mSTING-wt; [1]) [nM]	EC50 (hSTING-Q) [nM]	EC50 (hSTING-wt) [nM]	EC50 (hSTING-H232) [nM]	EC50 (hSTING-AQ) [nM]	EC50 (hSTING-HAQ) [nM]	EC50 (mSTING-wt) [nM]
CCn1nc(C)cc1C(=O)Nc1nc2cc(C(N)=O)cnc2n1C/C=C/CNC(=O)OC(C)(C)C [Compound D, tert-butyl N-[(E)-4-[6-carbamoyl-2-[(2-ethyl-5-methyl-pyrazole-3-carbonyl)amino]imidazo[4,5-b]pyridin-3-yl]but-2-enyl]carbamate]	> 500	> 500	> 500	> 500	> 500	> 500	–
CCn1nc(C)cc1C(=O)Nc1nc2cc(C(N)=O)cnc2n1CCCCNC(=O)OC(C)(C)C [Compound E, tert-butyl N-[4-[6-carbamoyl-2-[(2-ethyl-5-methyl-pyrazole-3-carbonyl)amino]imidazo[4,5-b]pyridin-3-yl]butyl]carbamate]	> 500	> 500	> 500	> 500	> 500	> 500	–
CCn1nc(C)cc1C(=O)Nc1nc2cc(C(N)=O)cnc2n1C/C=C/CNC(=O)OCc1ccccc1 [Compound F, benzyl N-[(E)-4-[6-carbamoyl-2-[(2-ethyl-5-methyl-pyrazole-3-carbonyl)amino]imidazo[4,5-b]pyridin-3-yl]but-2-enyl]carbamate]	> 500	> 500	> 500	> 500	> 500	> 500	–
CCn1nc(C)cc1C(=O)Nc1nc2cc(C(N)=O)cnc2n1CCCCNC(=O)OCc1ccccc1 [Compound G, benzyl N-[4-[6-carbamoyl-2-[(2-ethyl-5-methyl-pyrazole-3-carbonyl)amino]imidazo[4,5-b]pyridin-3-yl]butyl]carbamate]	> 500	> 500	> 500	> 500	> 500	> 500	–
CCn1nc(C)cc1C(=O)Nc1nc2cc(C(N)=O)sc2n1C/C=C/CNC(=O)OC(C)(C)C [Compound H, tert-butyl N-[(E)-4-[5-carbamoyl-2-[(2-ethyl-5-methyl-pyrazole-3-carbonyl)amino]thieno[2,3-d]imidazol-3-yl]but-2-enyl]carbamate]	> 500	> 500	> 500	> 500	> 500	> 500	–
CCn1nc(C)cc1C(=O)Nc1nc2cc(C(N)=O)sc2n1C/C=C/Cn1c(NC(=O)c2cc(C)nn2CC)nc2cc(C(N)=O)cc(OCCCNC)c21 [Compound Q, 3-[(E)-4-[5-carbamoyl-2-[(2-ethyl-5-methyl-pyrazole-3-carbonyl)amino]-7-[3-(methylamino)propoxy]benzimidazol-1-yl]but-2-enyl]-2-[(2-ethyl-5-methyl-pyrazole-3-carbonyl)amino]thieno[2,3-d]imidazole-5-carboxamide]	–	–	1 to 500	1 to 500	–	–	–
CCn1nc(C)cc1C(=O)Nc1nc2cc(C(N)=O)cnc2n1C/C=C/Cn1c(NC(=O)c2cc(C)nn2CC)nc2cc(C(N)=O)cc(OCCCO)c21 [Compound R]	–	1 to 500	1 to 500	1 to 500	1 to 500	1 to 500	1 to 500
CCn1nc(C)cc1C(=O)Nc1nc2cc(C(N)=O)cnc2n1C/C=C/Cn1c(NC(=O)c2cc(C)nn2CC)nc2cc(C(N)=O)cc(OCCCNC)c21 [Compound S, 3-[(E)-4-[5-carbamoyl-2-[(2-ethyl-5-methyl-pyrazole-3-carbonyl)amino]-7-[3-(methylamino)propoxy]benzimidazol-1-yl]but-2-enyl]-2-[(2-ethyl-5-methyl-pyrazole-3-carbonyl)amino]imidazo[4,5-b]pyridine-6-carboxamide]	1 to 500	1 to 500	1 to 500	1 to 500	1 to 500	1 to 500	–

More lines, main results first:

EC50 (mSTING-wt; [1]) [nM]	EC50 (hSTING-Q) [nM]	EC50 (hSTING-wt) [nM]	EC50 (hSTING-H232) [nM]	EC50 (hSTING-AQ) [nM]	EC50 (hSTING-HAQ) [nM]	SMILES	EC50 (mSTING-wt) [nM]
> 500	1 to 500	1 to 500	1 to 500	1 to 500	> 500	CCn1nc(C)cc1C(=O)Nc1nc2cc(C(N)=O)cc(C)c2n1C/C=C/Cn1c(NC(=O)c2cnc(C)s2)nc2cc(C(N)=O)cnc21 [Compound C, N-[6-carbamoyl-3-[(E)-4-[5-carbamoyl-2-[(2-ethyl-5-methyl-pyrazole-3-carbonyl)amino]-7-methyl-benzimidazol-1-yl]but-2-enyl]imidazo[4,5-b]pyridin-2-yl]-2-methyl-thiazole-5-carboxamide Hydrochloride]	–
1 to 500	1 to 500	1 to 500	1 to 500	> 500	> 500	CCn1nc(C)cc1C(=O)Nc1nc2cc(C(N)=O)cnc2n1C/C=C/Cn1c(NC(=O)c2cc(C)nn2CC)nc2cc(C(N)=O)cnc21 [Compound L, 3-[(E)-4-[6-carbamoyl-2-[(2-ethyl-5-methyl-pyrazole-3-carbonyl)amino]imidazo[4,5-b]pyridin-3-yl]but-2-enyl]-2-[(2-ethyl-5-methyl-pyrazole-3-carbonyl)amino]imidazo[4,5-b]pyridine-6-carboxamide]	–
1 to 500	1 to 500	1 to 500	1 to 500	> 500	> 500	CCn1nc(C)cc1C(=O)Nc1nc2cc(C(N)=O)ccc2n1C/C=C/Cn1c(NC(=O)c2cc(C)nn2CC)nc2cc(C(N)=O)sc21 [Compound M, 3-[(E)-4-[5-carbamoyl-2-[(2-ethyl-5-methyl-pyrazole-3-carbonyl)amino]benzimidazol-1-yl]but-2-enyl]-2-[(2-ethyl-5-methyl-pyrazole-3-carbonyl)amino]thieno[2,3-d]imidazole-5-carboxamide Tetrahydrochloride]	–
1 to 500	1 to 500	< 1	< 1	> 500	> 500	CCn1nc(C)cc1C(=O)Nc1nc2cc(C(N)=O)sc2n1C/C=C/Cn1c(NC(=O)c2cc(C)nn2CC)nc2cc(C(N)=O)cc(OCCOC(F)F)c21 [Compound N, 3-[(E)-4-[5-carbamoyl-7-[2-(difluoromethoxy)ethoxy]-2-[(2-ethyl-5-methyl-pyrazole-3-carbonyl)amino]benzimidazol-1-yl]but-2-enyl]-2-[(2-ethyl-5-methyl-pyrazole-3-carbonyl)amino]thieno[2,3-d]imidazole-5-carboxamide Tetrahydrochloride]	–
–	–	1 to 500	1 to 500	–	–	CCn1nc(C)cc1C(=O)Nc1nc2cc(C(N)=O)sc2n1C/C=C/Cn1c(NC(=O)c2cc(C)nn2CC)nc2cc(C(N)=O)cc(OCCCN(C)C)c21 [Compound O, 3-[(E)-4-[5-carbamoyl-7-[3-(dimethylamino)propoxy]-2-[(2-ethyl-5-methyl-pyrazole-3-carbonyl)amino]benzimidazol-1-yl]but-2-enyl]-2-[(2-ethyl-5-methyl-pyrazole-3-carbonyl)amino]thieno[2,3-d]imidazole-5-carboxamide]	–
1 to 500	1 to 500	1 to 500	1 to 500	1 to 500	1 to 500	CCn1nc(C)cc1C(=O)Nc1nc2cc(C(N)=O)cnc2n1C/C=C/Cn1c(NC(=O)c2cc(C)nn2CC)nc2cc(C(N)=O)cc(OCCCN(C)C)c21 [Compound P, 3-[(E)-4-[5-carbamoyl-7-[3-(dimethylamino)propoxy]-2-[(2-ethyl-5-methyl-pyrazole-3-carbonyl)amino]benzimidazol-1-yl]but-2-enyl]-2-[(2-ethyl-5-methyl-pyrazole-3-carbonyl)amino]imidazo[4,5-b]pyridine-6-carboxamide]	–
